The text below walks through data of patent publication US6013768A, “Kainate-binding human CNS receptors of the EAA1 family” (priority 1997, dated 2000).

Structures are written as SMILES.

For the assay, the target named is T1, human EAA1a receptor (Homo sapiens, UniProt Q16099).
T1 construct: expressed in transfected cells; host or cells: COS-1 (ATCC CRL 1650), transient expression, plasmid pcDNA1/humEAA1a
T1 sequence (Q16099 21-956): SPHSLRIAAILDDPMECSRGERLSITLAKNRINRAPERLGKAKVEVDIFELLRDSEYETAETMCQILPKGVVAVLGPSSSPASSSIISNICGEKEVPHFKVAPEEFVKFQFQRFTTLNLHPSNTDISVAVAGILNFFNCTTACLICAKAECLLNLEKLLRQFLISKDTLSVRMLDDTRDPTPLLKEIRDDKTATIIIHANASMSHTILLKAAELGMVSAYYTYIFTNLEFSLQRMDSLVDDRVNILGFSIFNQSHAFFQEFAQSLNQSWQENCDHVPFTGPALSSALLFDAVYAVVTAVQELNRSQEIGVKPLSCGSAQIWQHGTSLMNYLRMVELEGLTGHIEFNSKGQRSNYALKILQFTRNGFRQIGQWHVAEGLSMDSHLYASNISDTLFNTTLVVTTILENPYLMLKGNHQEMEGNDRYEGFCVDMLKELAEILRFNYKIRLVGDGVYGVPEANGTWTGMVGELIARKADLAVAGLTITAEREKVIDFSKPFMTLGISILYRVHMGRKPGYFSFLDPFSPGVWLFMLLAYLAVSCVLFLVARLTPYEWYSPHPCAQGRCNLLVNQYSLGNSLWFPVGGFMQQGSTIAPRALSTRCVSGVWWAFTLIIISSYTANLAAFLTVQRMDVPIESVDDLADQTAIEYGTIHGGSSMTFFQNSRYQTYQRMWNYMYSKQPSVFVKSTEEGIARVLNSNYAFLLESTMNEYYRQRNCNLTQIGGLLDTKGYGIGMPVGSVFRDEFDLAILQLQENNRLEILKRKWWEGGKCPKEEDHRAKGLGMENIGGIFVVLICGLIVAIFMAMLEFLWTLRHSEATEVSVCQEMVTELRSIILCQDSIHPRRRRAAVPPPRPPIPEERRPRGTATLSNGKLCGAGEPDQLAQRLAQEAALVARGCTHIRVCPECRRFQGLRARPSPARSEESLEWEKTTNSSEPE
In words: kainate binding assay, membranes of EAA1a-producing COS cells.

Procedure: Transfected cells in the frozen state were resuspended in ice-cold distilled water using a hand homogenizer and centrifuged for 20 minutes at 50,000 g. The supernatant was discarded and the membrane pellet stored frozen at -70° C.
COS cell membrane pellets were suspended in ice cold 50 mM Tris-HCl (pH 7.55, 5° C.) and placed inside Spectrapor 7 (EDTA-treated, sulfur-free) dialysis tubing. The suspension was placed in 4 liters of ice cold 50 mM Tris-HCl (pH 7.55, 5° C.) and dialyzed for 16-24 hours at 5° C. in order to remove endogenous glutamate that would compete for binding. The tissue suspension was recovered from the tubing along with a small volume of buffer used to rinse the tubing. This resultant membrane preparation was used as tissue source for binding experiments described below.
Binding assays were then performed, using an amount of COS-derived membrane equivalent to from 25-100 μg as judged by protein determination and selected radiolabelled ligand.
For kainate binding assays, incubation mixtures consisted of 25-100 μg tissue protein and [vinylidene-^3 H] kainic acid (58 Ci/mmole, 5 nM final) in the cold incubation buffer, 1 ml final volume. Non-specific binding was in the presence of 1 mM L-glutamate. […] Filters were washed twice in 6 ml of the cold incubation buffer, then placed in scintillation vials with 5 ml of Beckman Ready-Safe scintillation cocktail for counting.

Turning to `C=C(C)[C@H]1CN[C@H](C(=O)O)[C@H]1CC(=O)O` [kainate], the kainate binding affinity result (EAA1a-producing COS cell membranes, high affinity category i.e. nanomolar range) is recorded as “high affinity”. Also, where the note is “[3H]-kainate 5 nM labelled ligand, COS cell membranes, non-specific binding with 1 mM L-glutamate, FIG. 5”, the “specific binding of labelled kainate” value is “specific [^3 H]-kainate binding”.
